Source: patent US9682140B2, “Ezrin-derived peptides and pharmaceutical compositions thereof” (priority 2016, dated 2017)

Tests used:
[1] = tested on: encephalomyocarditis virus; assay: Antiviral (interferon-inducing) activity in culture of HELA human cervical carcinoma cell line; assay type: cell-based; conditions: 100 LD50 of encephalomyocarditis virus
Experimental: (§1) In this methodology in vitro, we pretreated different types of cells with the studied peptides, and then the cells were infected with a dose of 100 LD50 of encephalomyocarditis virus. 24 hours after the infection the cytopathic effect of the virus was assessed in order to evaluate protective activity of the tested compound if the latter has the ability to bring the cells to a state, resistant to the virus, which is deadly for cells.
(§2) The lower is the concentration which protects 50% of cells from death due to the infection at a dose of 100 LD50 of encephalomyocarditis virus, the higher is antiviral (interferon-inducing) activity of the tested compound.
(§3) The peptides were dissolved in distilled water, and then sterilized by passing through filters with pore size 0.2 μm to obtain the stock solutions of 1-2 mg/ml. On day 0, cells were seeded in the wells of 96-well plate in complete culture medium with cell density of 200 thousands of cells in 1 ml. On day 1, serial dilutions of each tested sample were prepared (24 serial dilutions in increments of 2) in triplets in the wells of the 96-well plate. On day 3, all the cultures were infected with a dose of 100 TCID50/ml of encephalomyocarditis virus strain “Columbia SK-Col-SK”. Finally, on day 4, cytopathic effect of the virus was assessed by using Leitz inverted microscope in the presence of different concentrations of the tested peptide or in the cultures without peptide (control).
(§4) Antiviral effect of the drug product was assessed based on minimal concentration thereof protecting 50% of the cells from death caused by encephalomyocarditis virus at a dose of 100 TCID50/ml. Interferon titre (U/ml) was calculated as a value, inverse to the maximal dilution of the drug product, which protected 50% of the cells from death caused by encephalomyocarditis virus at a dose of 100 TCID50/ml.
(§5) HELA human cervical carcinoma cell line was obtained from Research Institute of Virology named after Ivanovskiy (Moscow). Complete medium for cells culturing, peptides and compositions thereof, as well as assessment method for their antiviral (interferon-inducing) activity were the same as described in the Example 5.

[2] = tested on: encephalomyocarditis virus; assay: Antiviral (interferon-inducing) activity in culture of PLC/PRF/5 (Alexander) human hepatoma cell line; assay type: cell-based, encephalomyocarditis virus strain Columbia SK-Col-SK; conditions: for Antiviral efficacy (minimal compound concentration protecting 50% of the cells from death) / Titre of induced interferon (inverse to the maximal dilution protecting 50% of the cells): PLC/PRF/5 (Alexander) human hepatoma cells, 100 LD50 of encephalomyocarditis virus
Experimental: as §1, §2
PLC/PRF/5 (Alexander) human hepatoma cell line was obtained from Research Institute of Virology named after Ivanovskiy (Moscow). Complete medium for cells culturing was prepared on the basis of MEM Eagle medium supplemented with 10% fetal calf serum (FCS), L-glutamine (300 μg/ml), and penicillin (100 U/ml).
as §3, §4

[3] = tested on: encephalomyocarditis virus; assay: Antiviral (interferon-inducing) activity in culture of Girardi Heart human epithelial cell line; assay type: cell-based; conditions: for Antiviral efficacy (minimal compound concentration protecting 50% of the cells from death) / Titre of induced interferon (inverse to the maximal dilution protecting 50% of the cells): Girardi Heart epithelial cells, 100 LD50 of encephalomyocarditis virus
Experimental: as §1, §2, §3, §4
as §5, with “The culture of Girardi Heart” for “HELA”, “epithelial” for “cervical carcinoma”

[4] = tested on: MAPK/ERK signaling pathway; assay: Activation of MAPK/ERK signaling pathway in BALB/c mouse fibroblasts (immune blotting of phospho-p44/42 MAPK); assay type: cell-based
Experimental: Peptide […] (SEQ ID No: 1) was obtained as described in Example 1, BALB/c mouse fibroblast were purchased from American Type Culture Collection and propagated in a complete medium consisting of high glucose DMEM supplemented with 10% fetal calf serum, 1 mM sodium pyruvate, 1:50 MEM non-essential amino acids, 2 mM L-glutamine, 10 μg/ml gentamicin and 50 μM β-mercaptoethanol. Cells were grown in 10 cm culture dishes at 5% CO2 and 37° C. Cell passages were made at the 50-60% confluency. For cell detachment, 0.05% trypsin/EDTA was used with following centrifugation (470×g, 15 min) in 10-fold volume of washing medium containing 10% FCS to quench trypsin. Supernatant was discarded and the cell pellet was suspended in 10 ml of complete culture medium, then cell numbers were counted using hemocytometer before cells were used for experiments.
Fibroblasts were cultured in 8-well culture plates, the examined peptide or cytokine TGF-β1 (positive control) solution, or equivalent volume of culture medium (negative control) were added into respective triplicate cultures. Cells were incubated in presence of the peptide […] SEQ ID No: 1 (10 μg/ml) or TGF-β1, or without any effector compound during 1 or 6 hours at 5% C02 and 37° C. At the time points indicated, cell were harvested, washed twice with PBS and lyzed using the cell extraction buffer in the presence of protease inhibitors during 30 min at 4° C. Extracts were cleared by centrifugation (14,000×g, 10 min, 4° C.). Protein concentration was measured using protein assay reagent (Pierce, 23225). Appropriate dilutions of extracts ([…] protein per a track) were then fractionated in 8% SDS-PAGE and then transferred onto PVDF-membrane (Amersham) for immune blotting. Targeted proteins were detected using antibodies specific to phospho-p44/42 MAPK (Cell Signaling, 4370) and GAPDH (Abcam ab8245). Protein bands were visualized and then measured their intensities using ImageJ soft-ware. Data were expressed as a value (pixels per a band) of ERK1, ERK2 or phospho-ERK1 and phospho-ERK2 normalized to a value of respective GAPDH-bands. Mean values+SD were calculated using the data of 3 independent runs.

[5] = 1 hour after activation, peptide 10 μg/ml, TGF-β1 5 ng/ml, negative control 0.1+0.002
[6] = 1 hour after activation, peptide 10 μg/ml, TGF-β1 5 ng/ml, negative control 0.4+0.01
[7] = 6 hour time point, non-activated cultures 0.1+0.007
[8] = 6 hours after activation, negative control 0.1+0.01

Row | Substance | Antiviral efficacy (minimal compound concentration protecting 50% of the cells from death) [1] [µg/mL] | Titre of induced interferon (inverse to the maximal dilution protecting 50% of the cells) [1] [U/ml] | Antiviral efficacy (minimal compound concentration protecting 50% of the cells from death) [2] [µg/mL] | Titre of induced interferon (inverse to the maximal dilution protecting 50% of the cells) [2] [U/ml] | Antiviral efficacy (minimal compound concentration protecting 50% of the cells from death) [3] [µg/mL] | Titre of induced interferon (inverse to the maximal dilution protecting 50% of the cells) [3] | phospho-ERK1 normalized value (band intensity normalized to GAPDH) [4, 5] | phospho-ERK2 normalized value (band intensity normalized to GAPDH) [4, 6] | phospho-ERK2 normalized value (band intensity normalized to GAPDH) [4, 7] | phospho-ERK1 normalized value (band intensity normalized to GAPDH) [4, 8] | immunostimulatory activity compared with the activity of HEP-1 peptide ([2]; Table 1, PLC/PRF/5 cells) [times] | immunostimulatory activity compared with the activity of HEP-1 peptide ([3]; Table 3, Girardi Heart cells)
1 | NH2_Arg-Glu-Thr-Val-Glu-Arg-Glu-Lys-Glu_COOH (H-RETVEREKE-OH) [HP6-14] | 0.49 | 2048 | 0.78 | 1280 | 0.006 | 163 840 U/ml |  |  |  |  |  | 
2 | NH2_Gly-Glu-Lys-Lys-Arg-Arg-Glu-Thr-Val-Glu-Arg-Glu-Gly-Gly_COOH (H-GEKKRRETVEREGG-OH) [HP-V2] | 7.8 | 128 | 0.78 | 1280 | 0.0015 | 655 360 U/ml | 0.4+0.02 | 1.3+0.05 | 0.1+0.01 | 0.1+0.006 | 4 | the same
3 | NH2_Thr-Glu-Lys-Lys-Arg COOH (H-TEKKR-OH) [HP1-5] | 0.49 | 2048 | 1.6 | 640 | 0.0015 | 655 360 U/ml |  |  |  |  |  | 
4 | NH2_Thr-Glu-Lys-Lys-Arg-Arg-Glu-Thr-Val-Glu-Arg-Glu-Lys-Glu_COOH (H-TEKKRRETVEREKE-OH) [HEP-1] | 3.9 | 256 | 3.0 | 320 | 0.0015 | 655 360 U/ml |  |  |  |  |  | 
5 | TGF-β1: cytokine TGF-β1 (positive control) |  |  |  |  |  |  | 0.5+0.02 | 1.9+0.1 | 0.35+0.02 | 0.3+0.02 |  | 
